# Data taken from patent US20080207537A1, “Topical Ungual Formulations” (priority 2005, published 2008).
# Legend:
# [1] = pH of the agent solutions; type: physicochemical; settings: for pH of solution prior to application: 5% concentration, solution applied to nail (FIG. 7)
# [2] = Redox potential measurement against Ag/AgCl reference electrode; type: physicochemical; settings: for Redox potential: urea-H2O2 with H2O2 content of 15%
# [3] = 14C mannitol nail penetration study (nail diffusion cell); type: in vitro ADME, human; settings: single penetration enhancer
# Procedure: The single penetration enhancers were made up in the appropriate solvent and spiked with ^14C mannitol (10 μl of the stock ^14C mannitol). When more than one penetration enhancer was applied to the nails, only the last penetration enhancer was spiked with ^14C mannitol prior to nail application. ^14C mannitol with no penetration enhancer was used as a control.
# Pre-calibrated nail diffusion cells were assembled with full thickness human nail. The receiver fluid, which consisted of a 20% ethanol/water mixture, was put into the receiver well up to the etched mark on the side arm. A magnetic follower was inserted and the cells were then placed on a magnetic stirrer in a water bath maintained at 32° C. Cells were checked for leakage and air bubbles. […] This was to ensure that no cells contained any residual radioactivity and these readings were also taken as the background for each cell. […]
# After taking the background reading (described in the section above) 50 μl of ^3H water (ca. 18000 dpm) was placed on top of the nail in the assembled nail diffusion cell, using a pre-calibrated Gilson pipette. […] This value was used to normalise each nail and, if values of radioactivity were considered too high, then cells were rejected due to leaks. […]
# [4] = Terbinafine diffusion study (ChubTur diffusion cell); type: in vitro ADME, human
# Procedure: Human nail samples (full thickness) of ca. 3 mm diameter were positioned between the two halves of the specifically designed ChubTur™ diffusion cell and clamped together. The receptor compartment was filled with a previously sonicated suitable buffer system to ensure sink conditions and the cells were fixed on a perspex holder mounted on a magnetic stirrer in a water bath maintained at 32° C. The receptor chamber contents were continuously agitated by small PTFE-coated magnetic followers driven by a submersible magnetic stirrer. A known amount of formulation/drug solution was applied to the surface of the nail (infinite dose) and at regular time intervals samples of buffer were taken from the receptor compartment, replaced with fresh receptor medium and assayed for drug content using HPLC.
# [5] = DTT concentration 0.005 % w/w, n = 2
# [6] = DTT concentration 0.01 % w/w, n = 2
# [7] = DTT concentration 0.05 % w/w, n = 2
# [8] = DTT concentration 0.1 % w/w, n = 2
# [9] = DTT concentration 1 % w/w, n = 2
# [10] = DTT concentration 5 % w/w, n = 2
# [11] = DTT concentration 7.5 % w/w, n = 2
# [12] = DTT concentration 10 % w/w, n = 2
# [13] = H2O2 concentration 0.005 % w/w, n = 3
# [14] = H2O2 concentration 0.01 % w/w, n = 3
# [15] = H2O2 concentration 0.05 % w/w, n = 3
# [16] = H2O2 concentration 0.1 % w/w, n = 3
# [17] = H2O2 concentration 1 % w/w, n = 3
# [18] = H2O2 concentration 10 % w/w, n = 3
# [19] = H2O2 concentration 20 % w/w, n = 3
# [20] = H2O2 concentration 30 % w/w, n = 3
# [21] = H2O2 concentration 32.5 % w/w, n = 3
# [22] = H2O2 concentration 35 % w/w, n = 3
# [23] = TA concentration 0.001% w/w, n = 3
# [24] = TA concentration 0.005% w/w, n = 3
# [25] = TA concentration 0.01% w/w, n = 3
# [26] = TA concentration 0.05% w/w, n = 3
# [27] = TA concentration 0.1% w/w, n = 3
# [28] = TA concentration 2.5% w/w, n = 3
# [29] = TA concentration 7.5% w/w, n = 3
# [30] = TA concentration 10% w/w, n = 3
# [31] = TA concentration 20% w/w, n = 3
# [32] = Urea-H2O2, H2O2 content 0.0025 % w/w, n = 3
# [33] = Urea-H2O2, H2O2 content 0.005 % w/w, n = 3
# [34] = Urea-H2O2, H2O2 content 0.025 % w/w, n = 3
# [35] = Urea-H2O2, H2O2 content 0.05 % w/w, n = 3
# [36] = Urea-H2O2, H2O2 content 0.5 % w/w, n = 3
# [37] = Urea-H2O2, H2O2 content 5 % w/w, n = 3
# [38] = Urea-H2O2, H2O2 content 10 % w/w, n = 3
# [39] = Urea-H2O2, H2O2 content 15 % w/w, n = 3
# [40] = Urea-H2O2, H2O2 content 16.25 % w/w, n = 3
# [41] = Urea-H2O2, H2O2 content 17.5 % w/w, n = 3
smiles,measurement,setting,value
"O[C@@H](CS)[C@@H](O)CS (racemic) [DTT, 1,4-dithio-DL-threitol]",Mean pH,"[1]; 0.5M concentration, n = 3",2.64
same,Mean pH,[1]; [5],8.07
same,Mean pH,[1]; [6],8.00
same,Mean pH,[1]; [7],7.80
same,Mean pH,[1]; [8],7.59
same,Mean pH,[1]; [9],7.01
same,Mean pH,[1]; [10],6.20
same,Mean pH,[1]; [11],6.24
same,Mean pH,[1]; [12],5.69
same,Mean Redox Potential,"[2]; 0.5M concentration, n = 3",−241.0 mV
same,Mean Redox Potential,[2]; [5],−122.7
same,Mean Redox Potential,[2]; [6],−134.9
same,Mean Redox Potential,[2]; [7],−169.19
same,Mean Redox Potential,[2]; [8],−189.65
same,Mean Redox Potential,[2]; [9],−185.75
same,Mean Redox Potential,[2]; [10],−201.25
same,Mean Redox Potential,[2]; [11],−209.65
same,Mean Redox Potential,[2]; [12],−193.1
N.O=C(O)CS [Ammonium thioglycolate],Mean pH,"[1]; 0.5M concentration, n = 3",6.29
same,Mean Redox Potential,"[2]; 0.5M concentration, n = 3",−235.9 mV
O=C([O-])CS.O=C([O-])CS.[Ca+2] [Calcium thioglycolate],Mean pH,"[1]; 0.5M concentration, n = 3",11.74
same,pH of solution prior to application,[1],11.43
same,Mean Redox Potential,"[2]; 0.5M concentration, n = 3",−531.3 mV
CC12CCC(CC1)C(C)(C)O2 [Cineol],Mean pH,"[1]; 0.5M concentration, n = 3",5.91
same,Mean Redox Potential,"[2]; 0.5M concentration, n = 3",67.2 mV
"Cl.N[C@@H](CS)C(=O)O.O [Cysteine, L-Cysteine hydrochloride hydrate]",Mean Redox Potential,"[2]; 0.5M concentration, n = 3",−79.3 mV
O=C(O)CO [Glycolic acid],Mean pH,"[1]; 0.5M concentration, n = 3",2.03
same,Mean Redox Potential,"[2]; 0.5M concentration, n = 3",247.7 mV
OO [Hydrogen peroxide],Mean pH,"[1]; 0.5M concentration, n = 3",6.21
same,Mean pH,[1]; [13],7.56
same,Mean pH,[1]; [14],7.46
same,Mean pH,[1]; [15],6.78
same,Mean pH,[1]; [16],6.71
same,Mean pH,[1]; [17],6.17
same,Mean pH,[1]; [18],3.79
same,Mean pH,[1]; [19],3.16
same,Mean pH,[1]; [20],2.64
same,Mean pH,[1]; [21],2.54
same,Mean pH,[1]; [22],2.55
same,Mean Redox Potential,"[2]; 0.5M concentration, n = 3",277.3 mV
same,Mean Redox Potential,[2]; [13],142.3
same,Mean Redox Potential,[2]; [14],153.0
same,Mean Redox Potential,[2]; [15],200.4
same,Mean Redox Potential,[2]; [16],193.5
same,Mean Redox Potential,[2]; [17],231.6
same,Mean Redox Potential,[2]; [18],357.2
same,Mean Redox Potential,[2]; [19],402.8
same,Mean Redox Potential,[2]; [20],430.4
same,Mean Redox Potential,[2]; [21],437.9
same,Mean Redox Potential,[2]; [22],444.5
O=C(O)C(=O)O [Oxalic acid],Mean pH,"[1]; 0.5M concentration, n = 3",1.33
same,Mean Redox Potential,"[2]; 0.5M concentration, n = 3",254.8 mV
O=S(=O)([O-])OOS(=O)(=O)[O-].[K+].[K+] [Potassium persulphate],Mean pH,"[1]; 0.5M concentration, n = 3",2.83
same,Mean Redox Potential,"[2]; 0.5M concentration, n = 3",402.5 mV
Oc1cccc(O)c1 [Resorcinol],Mean pH,"[1]; 0.5M concentration, n = 3",5.67
same,Mean Redox Potential,"[2]; 0.5M concentration, n = 3",8.6 mV
O=C([O-])CS.[Na+] [Sodium thioglycolate],Mean pH,"[1]; 0.5M concentration, n = 3",6.90
same,Mean Redox Potential,"[2]; 0.5M concentration, n = 3",−281.7 mV
O=C(O)CS [Thioglycolic acid],Mean pH,"[1]; 0.5M concentration, n = 3",2.13
same,pH of solution prior to application,[1],2.12
same,Mean pH,[1]; [23],2.97
same,Mean pH,[1]; [24],3.12
same,Mean pH,[1]; [25],3.05
same,Mean pH,[1]; [26],2.53
same,Mean pH,[1]; [27],2.66
same,Mean pH,"[1]; TA concentration 1% w/w, n = 3",2.23
same,Mean pH,[1]; [28],1.71
same,Mean pH,"[1]; TA concentration 5% w/w, n = 3",1.85
same,Mean pH,[1]; [29],1.76
same,Mean pH,[1]; [30],1.83
same,Mean pH,[1]; [31],1.61
same,Mean Redox Potential,"[2]; 0.5M concentration, n = 3",−132.8 mV
same,Mean Redox Potential,"[2]; 5% TA solution, approximate pH 2 (adjusted using NaOH), n = 3",−70.4
same,Mean Redox Potential,"[2]; 5% TA solution, approximate pH 3 (adjusted using NaOH), n = 3",−133.1
same,Mean Redox Potential,"[2]; 5% TA solution, approximate pH 4 (adjusted using NaOH), n = 3",−166.7
same,Mean Redox Potential,"[2]; 5% TA solution, approximate pH 5 (adjusted using NaOH), n = 3",−179.5
same,Mean Redox Potential,"[2]; 5% TA solution, approximate pH 6 (adjusted using NaOH), n = 3",−192.9
same,Mean Redox Potential,"[2]; 5% TA solution, approximate pH 8 (adjusted using NaOH), n = 3",−272.3
same,Mean Redox Potential,"[2]; 5% TA solution, approximate pH 10 (adjusted using NaOH), n = 3",−386.5
same,Mean Redox Potential,"[2]; 5% TA solution, approximate pH 11 (adjusted using NaOH), n = 3",−433.8
same,Mean Redox Potential,[2]; [23],−47.7
same,Mean Redox Potential,[2]; [24],−56.6
same,Mean Redox Potential,[2]; [25],−67.5
same,Mean Redox Potential,[2]; [26],−85.6
same,Mean Redox Potential,[2]; [27],−97.4
same,Mean Redox Potential,"[2]; TA concentration 1% w/w, n = 3",−119.8
same,Mean Redox Potential,[2]; [28],−126.5
same,Mean Redox Potential,"[2]; TA concentration 5% w/w, n = 3",−131.5
same,Mean Redox Potential,[2]; [29],−132.7
same,Mean Redox Potential,[2]; [30],−132.8
same,Mean Redox Potential,[2]; [31],−128.7
same,permeation of 14C mannitol through full thickness human nail,"[3]; Saturated TA (50%), rank among the enhancers (FIG. 2)",best penetration enhancer of mannitol
same,permeation of 14C mannitol through full thickness human nail,"[3]; TA 5%, compared to DTT (FIG. 2)",drop below that of the DTT
O=c1cc[nH]c(=S)[nH]1 [Thiouracil],Mean pH,"[1]; 0.5M concentration, n = 3",6.28
same,Mean Redox Potential,"[2]; 0.5M concentration, n = 3",53.4 mV
"NC(N)=O.OO [Urea hydrogen Peroxide, Urea hydrogen peroxide addition compound]",Mean pH,"[1]; 0.5M concentration, n = 3",2.72
same,Mean pH,[1]; [32],6.07
same,Mean pH,[1]; [33],6.17
same,Mean pH,[1]; [34],6.56
same,Mean pH,[1]; [35],6.81
same,Mean pH,[1]; [36],5.31
same,Mean pH,[1]; [37],5.10
same,Mean pH,[1]; [38],4.23
same,Mean pH,[1]; [39],4.04
same,Mean pH,[1]; [40],3.87
same,Mean pH,[1]; [41],3.33
same,Mean Redox Potential,"[2]; 0.5M concentration, n = 3",349.7 mV
same,Mean Redox Potential,[2]; [32],189.4 mV
same,Mean Redox Potential,[2]; [33],191.3 mV
same,Mean Redox Potential,[2]; [34],199.5 mV
same,Mean Redox Potential,[2]; [35],208.1 mV
same,Mean Redox Potential,[2]; [36],293.6 mV
same,Mean Redox Potential,[2]; [37],372.3 mV
same,Mean Redox Potential,[2]; [38],377.9 mV
same,Mean Redox Potential,[2]; [39],380.3 mV
same,Mean Redox Potential,[2]; [40],382.9 mV
same,Mean Redox Potential,[2]; [41],382.3 mV
same,Redox potential,"[2]; approximate pH 2 (adjusted using HCl and NaOH), n = 3",459.8 mV
same,Redox potential,"[2]; approximate pH 4 (adjusted using HCl and NaOH), n = 3",334.1 mV
same,Redox potential,"[2]; approximate pH 6 (adjusted using HCl and NaOH), n = 3",284.0 mV
same,Redox potential,"[2]; approximate pH 8 (adjusted using HCl and NaOH), n = 3",194.2 mV
same,Redox potential,"[2]; approximate pH 10 (adjusted using HCl and NaOH), n = 3",16.1 mV
O=C(O)/C=C/c1ccc(O)cc1 [p-coumaric acid],Mean pH,"[1]; 0.5M concentration, n = 3",3.54
same,Mean Redox Potential,"[2]; 0.5M concentration, n = 3",114.1 mV
CN(C/C=C/C#CC(C)(C)C)Cc1cccc2ccccc12 [terbinafine],amount of drug penetrated the nail,"[4]; nails soaked in 50:50 ethanol/water (control) for 20 h before drug, after 214 h",44±13 μg per cm^2
same,amount of drug penetrating the nail,[4]; pre-treatment with TA then urea-H2O2 for 30 min,less than 10 μg per cm^2
same,amount of drug penetrating the nail,[4]; pre-treatment with TA then urea-H2O2 for 1 h,less than 10 μg per cm^2
same,amount of terbinafine penetrating the human nail,"[4]; pre-treatment with TA then urea-H2O2 for up to 20 h each, after 315 h",3329±1842 μg per cm^2
same,amount of drug penetrating the nail,[4]; pre-treatment with thioglycolic acid alone,861±135 μg per cm^2
same,amount of drug penetrating the nail,[4]; pre-treatment with urea-hydrogen peroxide alone,47±33 μg per cm^2
same,effect of pre-treatment on the amount of drug penetrating the nail,"[4]; pre-treatment with urea-hydrogen peroxide versus control, p>0.05, ANOVA",no significant effect
same,amount of drug penetrating the nail,"[4]; thioglycolic acid and urea-H2O2 applied sequentially prior to terbinafine, after 219 h",2308±1332 μg per cm^2
